# Assays:
# Format in all cases: cell-based, mouse
# MLE-BV cells = test: TCDD-inducible luciferase activity, transient transfection with pGudLuc1.1
# Protocol: (§1) In general, the expression vectors pGudLuc1.0 and pGudLuc1.1 were prepared as follows. A 1330-bp HindIII fragment or an 1810-bp HindIII fragment isolated from the plasmid, pMpap1.0 or pMpap1.1, respectively (see, El-Fouly et al., supra), was subcloned into the HindIII site immediately upstream of the luciferase gene in the plasmid pGL2-basic (purchased from Promega).
# (§2) More specifically, the following cells were obtained from the source indicated. Wild-type and AhR-defective (BPRc1 and TAO, respectively) mouse hepatoma (Hepa1c1c7) cells (Hepa1), derived from a C57B1 mouse liver tumor, were obtained from J. P. Whitlock, Jr. (Stanford University). These cells were grown as previously described by Miller et al. in "Biochemical and Genetic Analysis of Variant Mouse Hepatoma Cells Defective in the Induction of Benzo(a)pyrene Metabolizing Enzyme Activity", J. Biol. Chem., Vol. 258, pp. 3523-3527 (1983). Additionally, mouse hepatoma (MLE/BV) cells, derived from a spontaneously immortalized C3H/HeN mouse liver cell, were obtained from B. V. Madhukar (Indiana University School of Medicine, Indianapolis, Ind.) and were grown as described for the Hepa1 cells. Rat hepatoma (H4IIe) cells, guinea pig intestinal adenocarcinoma (GPC16) cells, hamster lung (AHL) cells, human hepatoma (HepG2) cells, human breast tumor (MCF7) cells, and human intestinal epithelial (LS180) cells were obtained from the American Type Culture Collection (Rockville, Md.). Until transfection, all of the cells were maintained according to their respective cell-type-specific culture protocols.
# (§3) Transfection was accomplished as follows. Using polybrene as previously described by Helferich et al. in "Photooxidized Products of Tryptophan Can Act as Dioxin Agonists", Mol. Pharmacol., Vol. 40, pp. 674-678 (1991), plates of cells (approximately 80% confluent) were transiently transfected with the desired plasmid (15 μg). Then, the transfected cells were allowed to grow for 48 hours, followed by the addition of either DMSO (1 μl/ml) or TCDD (1 nM) solubilized in DMSO, which was followed by incubation for 24 hours. Next, the plates were transferred onto ice, and the media were removed, after which the plates were rinsed twice with cold PBS. Then, 200 μl of luciferase lysis buffer (purchased from Promega) was used to lyse the cells. The lysed cell samples were collected and transferred into a microfuge tube. Cell debris was pelleted by centrifugation, and the supernatants were collected. The supernatant samples were assayed for TCDD-inducible luciferase activity in the following manner.
# (§4) Using the stabilized luciferase assay system (purchased from Promega), luciferase activity in an aliquot of the cleared lysed cell supernatant (20 μl) was determined by mixing it with 100 µl of luciferase assay reagent (purchased from Promega) and measuring the resulting luminescence in a Turner Luminometer or Dynatech ML3000 microplate luminometer (light output was integrated over 1 minute after a delay time of 30 seconds).
# (§5) Using a microplate adaptation of the method reported by Bradford in "A Rapid Sensitive Method for the Quantitation of Microgram Quantities of Protein Utilizing the Principle of Protein-Dye Binding", Anal. Biochem., […], pp. 248-254 (1976), luciferase activity was standardized to the protein concentration of the supernatant (with bovine serum albumin as the protein standard). Because of instrument differences in luminescence measurement and data output, luciferase activity was determined as relative light units (RLU) per microgram of protein, which was converted to milligram of protein as reported in the Tables below.
# [1] = test system: Hepa1-BPRc1 cells (defective arnt protein); test: as above
# Protocol: as §1, §2, §3, §4, §5
# [2] = test system: Hepa1-TAO cells (reduced levels of AhR); test: as above
# Protocol: as §1, §2, §3, §4, §5
# H1L1.1 cells = test: Dose response of luciferase induction, 24 h (FIGS. 3-6, Table 3); conditions: for Induced luciferase activity, TCDD reference: 1 nM TCDD in DMSO
# Protocol: The graph of FIG. 3 illustrates the dose dependence of luciferase induction in the mouse H1L1.1 cells measured following […] of the cells to increasing concentrations of TCDD or other toxic compounds (which others are discussed in more detail below).
# More particularly, the stable cell clones for the mouse H1L1.1 cells (about 90% confluent) were plated into six-well microplates (purchased from Corning) and incubated for 24 hours with the indicated concentration of the particular toxin solubilized in DMSO. Then, the cells were lysed with 100 μl of lysis buffer and luciferase activity was determined as described above. Values represent the mean ± the standard evaluation of at least triplicate determinations.
# As set out in Table 3, the responsiveness and sensitivity of the mouse H1L1.1 cells was compared to the responsiveness and sensitivity of certain other published PCDH cell bioassay systems. The other systems were a recombinant HepG2 (101L) cell line that induces firefly luciferase (see, Postlind et al., supra), a recombinant Hepa1 (T13) cell line that induces PAP activity (see El-Fouly et al., supra), and a rat H4IIE cell line that induces EROD activity (see, Kennedy et al., supra). The ED50 values were calculated by probit analysis of the dose-response data.
# As set out in the graphs of FIGS. 3-6, since one use of the stably transfected mouse H1L1.1 cell lines is for detection and relative quantitative analysis of TCDD and various dioxin-like compounds (i.e., AhR ligands), the ability of various compounds besides TCDD to induce luciferase activity in the mouse H1L1.1 cells was examined. The experiments performed to determine the dose-response curves for the toxins other than TCDD set out in the graphs of FIGS. 3-6 were performed in essentially the same manner as the experiments described above to determine the dose response curve of TCDD set out in the graph of FIG. 3.
# Specifically, with respect to the data illustrated in the graph of FIG. 3, cells were incubated with increasing concentrations of test chemical and luciferase activity determined after 24 hours.
# It should be noted that the low numerical values of luciferase activity from induction by various PCBs reported in FIGS. 4 and 5, compared to the values reported in the other figures, are not due to actual low levels of luciferase induction, but to the fact that the detection of luminescence in these experiments was performed using a different instrument from that used in the other experiments.
# However, the relative magnitude of luciferase induction by the mono-ortho-PCBs (FIG. 4) and the AROCLORS (FIG. 5) was established by directly comparing the resulting activity to that produced by a maximally inducing dose of TCDD (1 nM solubilized in DMSO) measured in the same instrument.
# [3] = Mus musculus, Luc1.1, TCDD 1 nM vs DMSO
structure (smiles),measurement,setting,value
"Clc1cc2c(cc1Cl)Oc1cc(Cl)c(Cl)cc1O2 [TCDD, 2,3,7,8-tetrachlorodibenzo-para-dioxin]","Luciferase activity, TCDD in DMSO","MLE-BV cells; Luc1.1, TCDD 1 nM, 24 h",13.2 RLU/mg protein
same,fold induction,MLE-BV cells; [3],66
same,"Luciferase activity, TCDD in DMSO","[1]; Luc1.1, TCDD 1 nM, 24 h",0.8 RLU/mg protein
same,fold induction,[1]; [3],1.6
same,Induction of luciferase activity,"[1]; pGudLuc1.1, TCDD 1 nM",failure of TCDD treatment to induce luciferase activity
same,"Luciferase activity, TCDD in DMSO","[2]; Luc1.1, TCDD 1 nM, 24 h",1.8 RLU/mg protein
same,fold induction,[2]; [3],4.5
same,Inducibility of luciferase activity,"[2]; pGudLuc1.1, TCDD 1 nM",reduced inducibility
same,"Induced luciferase activity, TCDD reference",H1L1.1 cells; instrument of FIG. 4,2.25±0.6
same,"Induced luciferase activity, TCDD reference",H1L1.1 cells; instrument of FIG. 5,0.95±0.07
same,EC50,"H1L1.1 cells; Mus musculus, 24 h, FIG. 3",~0.02 nM
same,fold induction at 0.001 µM,"H1L1.1 cells; Mus musculus, by 1.0 nM TCDD, 24 h, FIG. 3, read-out: Maximal induction of luciferase activity",80
same,Dose dependence of luciferase induction,"H1L1.1 cells; TCDD, 24 h, FIG. 3",dose dependent

# — patent US5854010A, “Bioassay for detecting 2,3,7,8-tetrachlorodibenzo-para-dioxin and TCDD-like compounds and novel recombinant cell line useful therefor” (priority 1997, dated 1998)
